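These data come from cells grown in 96-well plates and exposed to compound for 48 hours at five concentrations. GI50 = concentration required for 50% inhibition of growth.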 Activity calls are given as the source filed them. Cut-off read from the data, not from the text of the source: active = GI50 up to about 1.1 µM and inactive = higher.

What all share (test): inhibition of tumour cell growth, NCI panel, 48 h
Test [1] deals with ACHN.
For test [2], the system named is CCRF-CEM.
Test [3] concerns EKVX.
The test system of test [4] is HCT-116.
Test [5] has as its system HL-60.
Test [6] concerns HT-29.
For test [7], the system named is IGROV-1.
The test system of test [8] is MDA-MB-231.
The test system of test [9] is MDA-MB-435.
In test [10] the test system is Malme-3M.
The test system of test [11] is NCI-H226.
In test [12] the test system is NCI/ADR-RES.
Test [13] relates to OVCAR-3.
The subject of test [14] is OVCAR-4.
The subject of test [15] is PC-3.
Test [16] relates to RXF 393.
In test [17] the test system is SN12C.
Test [18] deals with T47D.
For test [19], the system named is TK-10.
In test [20] the test system is UO-31.

As to `COc1cc2oc(=O)ccc2cc1C1OC(=O)C2OC21C` (stereo not given), the GI50 in test [1], in test [2], in test [3], in test [4], in test [5] and in test [6] was > 100 µM (inactive) throughout. The GI50 in test [7], in test [8], in test [9], in test [10], in test [11] and in test [12] was > 100 µM (inactive) in each case. For the same compound, the GI50 in [13], in test [14], in test [15], in test [16], in test [17] and in [18] was > 100 µM (inactive) throughout. Further, the figures for the GI50 in test [19] and in test [20] were > 100 µM (inactive) and 64.9 µM (inactive), respectively.

For the compound `CC[C@]12CCCN3CCc4c(n(c5ccccc45)C(=O)C1)[C@@H]32` [VINBURNINE], the GI50 is 32.4 µM (inactive) in test [1]; 1.31 µM (inactive) in test [2]; 46.9 µM (inactive) in test [3]; 3.86 µM (inactive) in [4]; 2.65 µM (inactive) in test [5]; 3.56 µM (inactive) in test [6]. In addition, the GI50 was 5.85 µM (inactive) in test [7]; 9.35 µM (inactive) in test [8]; 1.26 µM (inactive) in test [9]; 4.63 µM (inactive) in [10]; > 83.8 µM (inactive) in test [11]; 3.25 µM (inactive) in test [12]. The GI50 in [13] is 2.44 µM (inactive); in test [14], 18.2 µM (inactive); in test [15], 18.2 µM (inactive); in [16] it was 15.6 µM (inactive); in [17], 12.9 µM (inactive); in test [18], 11.5 µM (inactive). Besides, the values for the GI50 in test [19] and in test [20] were 12.5 µM (inactive) and 4.75 µM (inactive), respectively.

In the case of `NC1=Nc2ccccc2Sc2cccc(F)c21`, the GI50 was > 100 µM (inactive) in [1]; 25.2 µM (inactive) in test [2]; 50.9 µM (inactive) in test [3]; 29.1 µM (inactive) in test [4]; 24 µM (inactive) in test [5]; > 100 µM (inactive) in [6]. The GI50 in [7] is > 100 µM (inactive); in test [8], > 100 µM (inactive); in [9], 74 µM (inactive); in test [10], > 100 µM (inactive); in [11], 66.5 µM (inactive); in [12] it was 43.7 µM (inactive). The GI50 was 44 µM (inactive) in test [13]; 58.3 µM (inactive) in test [14]; 63.5 µM (inactive) in [15]; 24.9 µM (inactive) in test [16]; > 100 µM (inactive) in test [17]; 62.2 µM (inactive) in test [18]. Moreover, the GI50 was > 100 µM (inactive) in test [19] and 84.5 µM (inactive) in test [20].

For the compound `COC(=O)C1=C(C(=O)OC)C2(C)CCC(=O)C1O2` (stereo not given), the GI50 in test [1], in test [2], in test [3], in [4], in test [5] and in test [6] was > 10 µM (inactive) throughout. In addition, the GI50 in [7], in test [8], in test [9], in test [10], in test [11] and in test [12] was > 10 µM (inactive) each time. The GI50 in test [13], in [14], in test [15], in [16], in [17] and in [18] was > 10 µM (inactive) throughout. For the same compound, the GI50 in test [19] and in test [20] was > 10 µM (inactive) in each case.

Regarding `CCCN1CN(c2ccccc2)C2(CCN(CCCC(=O)c3ccc(F)cc3)CC2)C1=O`, the GI50 is 2.13 µM (inactive) in test [1]; 0.991 µM (active) in [2]; 14 µM (inactive) in [3]; 2.18 µM (inactive) in test [4]; 16.6 µM (inactive) in [5]; 0.631 µM (active) in test [6]. The GI50 in [7] is 2.54 µM (inactive); in [8] it was 6.93 µM (inactive); in test [9] it was 11 µM (inactive); in [10], 14.9 µM (inactive); in [11] it was 6.47 µM (inactive); in test [12], 4.53 µM (inactive). Further, the GI50 in test [13] was 13.8 µM (inactive); in [14], 2.48 µM (inactive); in test [15] it was 10.2 µM (inactive); in test [16] it was 16.8 µM (inactive); in test [17], 2.94 µM (inactive); in test [18], 4.61 µM (inactive). Further, the GI50 in test [19] is 6.62 µM (inactive); in test [20], 11.8 µM (inactive).

Consider `CNC(=S)N/N=C/c1cccc(C)n1`, for which the GI50 in [1] is 28.2 µM (inactive); in test [2] it was 23.4 µM (inactive); in test [3], 46.6 µM (inactive); in [4], 31.6 µM (inactive); in [5] it was > 45.5 µM (inactive); in [6] it was 36 µM (inactive). The GI50 is 44.7 µM (inactive) in test [7]; 39.3 µM (inactive) in test [8]; 45 µM (inactive) in test [9]; 37.2 µM (inactive) in test [10]; > 50.7 µM (inactive) in test [11]; 23.8 µM (inactive) in [12]. Moreover, the GI50 is 29.9 µM (inactive) in test [13]; > 59.7 µM (inactive) in [14]; 42 µM (inactive) in test [15]; 38.5 µM (inactive) in [16]; 26.4 µM (inactive) in [17]; 42.8 µM (inactive) in [18]. The GI50 in test [19] is 32.8 µM (inactive); in test [20], 20.7 µM (inactive).

As to `COc1ccc2nccc(NCCCN3CCN(CCCNc4ccnc5ccc(OC)cc45)CC3)c2c1`, the GI50 in test [1] is 1.45 µM (inactive); in test [2], 0.0828 µM (active); in [3] it was 1.34 µM (inactive); in test [4], 0.221 µM (active); in test [5] it was 0.0953 µM (active); in test [6], 0.172 µM (active). The GI50 in test [7] was 0.283 µM (active); in test [8] it was 0.357 µM (active); in test [9], 0.427 µM (active); in [10], 0.644 µM (active); in [11], 0.255 µM (active); in test [12], 18.2 µM (inactive). In addition, the GI50 in test [13] was 1.22 µM (inactive); in test [14], 1.04 µM (active); in test [15] it was 0.44 µM (active); in [16] it was 1.32 µM (inactive); in test [17] it was 0.177 µM (active); in test [18], 0.887 µM (active). Besides, the GI50 in test [19] is 5.31 µM (inactive); in [20], 8.13 µM (inactive).

Consider `CC1=CC(C)(C)[C@H]2O[C@@]3(O)C[C@]4(C)[C@H]5C[C@@](C(C)C)(O[C@H]4c4ccoc4)O[C@H]4[C@]5(C3)O[C@@]1(O)[C@]24O`, for which the GI50 in test [1] was > 100 µM (inactive); in test [2], > 100 µM (inactive); in test [3], > 100 µM (inactive); in [4], 61.8 µM (inactive); in test [5] it was > 100 µM (inactive); in test [6], > 100 µM (inactive). Also, the GI50 was > 100 µM (inactive) in test [7]; 81.3 µM (inactive) in test [8]; > 100 µM (inactive) in [9]; 40.9 µM (inactive) in test [10]; > 100 µM (inactive) in [11]; > 100 µM (inactive) in test [12]. Besides, the GI50 in test [13] is > 100 µM (inactive); in test [14], 54.2 µM (inactive); in test [15], > 100 µM (inactive); in test [16], > 100 µM (inactive); in [17], > 100 µM (inactive); in test [18], > 100 µM (inactive). The GI50 in test [19] and in test [20] was > 100 µM (inactive) throughout.

Turning to `N=C(N)C(/N=N\c1ccccc1)C(=N)N` (stereo not given), the GI50 in [1] was 64.9 µM (inactive); in test [2], 13.5 µM (inactive); in [3], 38.8 µM (inactive); in test [4] it was 33.5 µM (inactive); in test [5] it was 24.7 µM (inactive); in test [6] it was 29.8 µM (inactive). Moreover, the GI50 in [7] was 33.2 µM (inactive); in test [8], 15.3 µM (inactive); in test [9], 16.9 µM (inactive); in test [10], 51.1 µM (inactive); in [11], 15 µM (inactive); in test [12], 60.4 µM (inactive). Besides, the GI50 was 38.5 µM (inactive) in test [13]; 42.4 µM (inactive) in test [14]; 31.8 µM (inactive) in test [15]; > 100 µM (inactive) in test [16]; 36.6 µM (inactive) in [17]; 46.3 µM (inactive) in [18]. Besides, the results for the GI50 in test [19] and in [20] were 46.9 µM (inactive) and 30.5 µM (inactive), respectively.

As to `COc1cc(S(=O)(=O)Nc2nc(-c3ccc(/N=C/c4ccccc4O)cc3)cs2)ccc1Cl`, the GI50 was 41.7 µM (inactive) in [1]; 26.5 µM (inactive) in [2]; 23.4 µM (inactive) in [3]; 29.4 µM (inactive) in test [4]; 35.6 µM (inactive) in test [5]; 44 µM (inactive) in test [6]. Further, the GI50 in test [7] is 31.4 µM (inactive); in test [8], 36.5 µM (inactive); in test [9] it was 54.5 µM (inactive); in test [10], 40.3 µM (inactive); in test [11], 44.2 µM (inactive); in [12], 50.5 µM (inactive). Further, the GI50 in test [13] is 33 µM (inactive); in [14], 45.6 µM (inactive); in test [15], 39.1 µM (inactive); in test [16] it was 34.3 µM (inactive); in test [17], 17.9 µM (inactive); in [18] it was 27.4 µM (inactive). In addition, the GI50 in test [19] was 74.3 µM (inactive); in [20], 44.2 µM (inactive).

The values are drawn from ChEMBL document CHEMBL1201862, “PubChem BioAssay data set” (2004).
